Reference: US20180057467A1, “NOVEL TRIAZOLE DERIVATIVES” (BAYER CROPSCIENCE AKTIENGESELLSCHAFT, priority 2015, published 2018)
Read-outs that look alike come from different tables or passages of the source. Marks after values point to notes of the source that are not given here.

Test: LogP by HPLC on reversed phase columns (EEC directive 79/831 Annex V.A8)
Format: physicochemical
Method: [table] If more than one Log P value is available within the same method, all the values are given and separated by “+”. […] Lambda-max-values were determined using UV-spectra from 200 nm to 400 nm and the peak values of the chromatographic signals.

[1] = method [a]: LC-UV, acidic range, 0.1% formic acid in water and acetonitrile as eluent
[2] = reversed phase HPLC column, method [a]: LC-UV, acidic range, 0.1% formic acid in water and acetonitrile as eluent, read-out: LogP

In the case of OC(Cn1cncn1)(c1ccc(F)cc1F)C1(Oc2cc(F)c(F)c(F)c2)CC1 (racemic) [Example I-05], the LogP [1] was 3.44^[a].
For OC(Cn1cncn1)(c1ccc(F)cc1F)C1(Oc2c(Cl)ccc(Cl)c2Cl)CC1 (racemic) [Example I-06], the LogP [1] was 4.19^[a].
In the case of OC(Cn1cncn1)(c1ccc(F)cc1F)C1(Oc2c(Cl)cc(Cl)cc2Cl)CC1 (racemic) [Example I-07], the LogP [1] was 4.49^[a].
With OC(Cn1cncn1)(c1ccc(F)cc1F)C1(Oc2c(F)ccc(Cl)c2F)CC1 (racemic) [Example I-08] the LogP [1] was 3.39^[a].
In the case of OC(Cn1cncn1)(c1ccc(F)cc1F)C1(Oc2c(Cl)cc(OC(F)(F)F)cc2Cl)CC1 (racemic) [Example I-09], the LogP [1] was 4.62^[a].
With OC(Cn1cncn1)(c1ccc(F)cc1F)C1(Oc2c(Cl)cc(C(F)(F)F)cc2Cl)CC1 (racemic) [Example I-10] the LogP [1] was 4.46^[a].
In the case of OC(Cn1cncn1)(c1ccc(F)cc1F)C1(Oc2c(Cl)cc(SC(F)(F)F)cc2Cl)CC1 (racemic) [Example I-11], the LogP [1] was 4.97^[a].
With OC(Cn1cncn1)(c1ccc(F)cc1F)C1(Oc2c(Cl)cc(Br)cc2Cl)CC1 (racemic) [Example I-12] the LogP [1] was 4.62^[a].
With OC(Cn1cncn1)(c1ccc(F)cc1F)C1(Oc2c(F)ccc(F)c2F)CC1 (racemic) [Example I-13] the LogP [1] was 3.14^[a].
With COC(Cn1cncn1)(c1ccc(F)cc1F)C1(Oc2c(F)ccc(F)c2F)CC1 (racemic) [Example I-14] the LogP [1] was 3.50^[a].
In the case of COC(Cn1cncn1)(c1ccc(F)cc1F)C1(Oc2c(Cl)ccc(Cl)c2Cl)CC1 (racemic) [Example I-15], the LogP [1] was 4.46^[a].
With OC(Cn1cncn1)(c1ccc(F)cc1F)C1(Oc2c(Cl)cc(F)cc2Cl)CC1 (racemic) [Example I-16] the LogP [1] was 3.94^[a].
In the case of COC(Cn1cncn1)(c1ccc(F)cc1F)C1(Oc2c(F)ccc(Cl)c2F)CC1 (racemic) [Example I-17], the LogP [1] was 3.85^[a].
For COC(Cn1cncn1)(c1ccc(F)cc1F)C1(Oc2c(Cl)cc(OC(F)(F)F)cc2Cl)CC1 (racemic) [Example I-18], the LogP [1] was 4.87^[a].
With OC(Cn1cncn1)(c1ccc(Cl)cc1F)C1(Oc2c(F)cc(Cl)cc2F)CC1 (racemic) [Example I-23] the LogP [1] was 4.01^[a].
With OC(Cn1cncn1)(c1ccc(Cl)cc1F)C1(Oc2c(F)cc(F)cc2F)CC1 (racemic) [Example I-24] the LogP [1] was 3.51^[a].
With COC(Cn1cncn1)(c1ccc(Cl)cc1F)C1(Oc2c(F)cc(Cl)cc2F)CC1 (racemic) [Example I-25] the LogP [1] was 4.41^[a].
With COC(Cn1cncn1)(c1ccc(Cl)cc1F)C1(Oc2c(F)cc(F)cc2F)CC1 (racemic) [Example I-26] the LogP [1] was 3.97^[a].
In the case of OC(Cn1cncn1)(c1ccc(F)cc1F)C1(Oc2ccc(F)c(F)c2F)CC1 (racemic) [Example I-27], the LogP [1] was 3.30^[a].
With OC(Cn1cncn1)(c1ccc(F)cc1F)C1(Oc2cc(F)c(F)cc2F)CC1 (racemic) [Example I-28] the LogP [1] was 3.17^[a].
In the case of OC(Cn1cncn1)(c1ccc(F)cc1F)C1(Oc2c(F)ccc(F)c2Cl)CC1 (racemic) [Example I-29], the LogP [1] was 3.42^[a].
For OC(Cn1cncn1)(c1ccc(F)cc1F)C1(Oc2cc(F)c(Br)c(F)c2)CC1 (racemic) [Example I-30], the LogP [1] was 3.85^[a].
For Fc1ccc(C2(C3(Oc4c(F)cc(Cl)cc4F)CC3)CO2)c(F)c1 (racemic) [Example V-02], the LogP [1] was 4.59^[a].
For Fc1ccc(C2(C3(Oc4c(F)cc(Br)cc4F)CC3)CO2)c(F)c1 (racemic) [Example V-03], the LogP [1] was 4.86 and the LogP (method [b]: LC-UV, neutral range, 0.001 molar ammonium acetate solution in water and acetonitrile as eluent) was 4.87.
In the case of Fc1ccc(C2(C3(Oc4cc(F)c(F)c(F)c4)CC3)CO2)c(F)c1 (racemic) [Example V-04], the LogP [1] was 4.64^[a].
With Fc1ccc(C2(C3(Oc4c(Cl)cc(OC(F)(F)F)cc4Cl)CC3)CO2)c(F)c1 (racemic) [Example V-05] the LogP [1] was 5.62^[a].
In the case of Fc1ccc(C2(C3(Oc4c(F)ccc(Cl)c4F)CC3)CO2)c(F)c1 (racemic) [Example V-06], the LogP [1] was 4.65^[a].
With Fc1ccc(C2(C3(Oc4c(Cl)cc(Cl)cc4Cl)CC3)CO2)c(F)c1 (racemic) [Example V-07] the LogP [1] was 5.56^[a].
In the case of Fc1ccc(C2(C3(Oc4c(Cl)cc(Br)cc4Cl)CC3)CO2)c(F)c1 (racemic) [Example V-08], the LogP [1] was 5.72^[a].
With Fc1ccc(C2(C3(Oc4c(Cl)ccc(Cl)c4Cl)CC3)CO2)c(F)c1 (racemic) [Example V-09] the LogP [1] was 5.27^[a].
For Fc1ccc(C2(C3(Oc4c(F)ccc(F)c4F)CC3)CO2)c(F)c1 (racemic) [Example V-10], the LogP [1] was 4.20^[a].
In the case of Fc1ccc(C2(C3(Oc4c(Cl)cc(C(F)(F)F)cc4Cl)CC3)CO2)c(F)c1 (racemic) [Example V-11], the LogP [1] was 5.51^[a].
For OC(Cn1cncn1)(c1ccc(F)cc1F)C1(Oc2c(F)cc(Cl)cc2F)CC1 (single isomer, unassigned) [Example I-19], the LogP [1] was 3.55^[a].
For OC(Cn1cncn1)(c1ccc(F)cc1F)C1(Oc2c(F)cc(Cl)cc2F)CC1 (single isomer, unassigned) [Example I-20], the LogP [1] was 3.55^[a].
In the case of OC(Cn1cncn1)(c1ccc(F)cc1F)C1(Oc2c(F)cc(Br)cc2F)CC1 (single isomer, unassigned) [Example I-21], the LogP [1] was 3.63^[a].
With OC(Cn1cncn1)(c1ccc(F)cc1F)C1(Oc2c(F)cc(Br)cc2F)CC1 (single isomer, unassigned) [Example I-22] the LogP [1] was 3.63^[a].
For OC(Cn1cncn1)(c1ccc(F)cc1F)C1(Oc2c(F)cc(F)cc2F)CC1 (stereo not drawn) [Example I-02, 1-(2,4-difluorophenyl)-2-(1H-1,2,4-triazol-1-yl)-1-[1-(2,4,6-trifluorophenoxy)cyclopropyl]ethanol], the LogP was 3.10^[b] and the chromatographic logP (LogP) was 3.11.
In the case of CC(=O)OC(Cn1cncn1)(c1ccc(F)cc1F)C1(Oc2c(F)cc(F)cc2F)CC1 (stereo not drawn) [Example I-04, 1-(2,4-difluorophenyl)-2-(1H-1,2,4-triazol-1-yl)-1-[1-(2,4,6-trifluorophenoxy)cyclopropyl]ethyl acetate], the LogP was 3.29^[b] and the chromatographic logP (LogP) was 3.32.
For Fc1ccc(C2(C3(Oc4c(F)cc(F)cc4F)CC3)CO2)c(F)c1 (stereo not drawn) [Example V-01, 2-(2,4-difluorophenyl)-2-[1-(2,4,6-trifluorophenoxy)cyclopropyl]oxirane], the chromatographic logP [2] was 4.26 and the chromatographic logP (reversed phase HPLC column, method [b]: LC-UV, neutral range, 0.001 molar ammonium acetate solution in water and acetonitrile as eluent, read-out: LogP) was 4.26.
For Fc1ccc(C2(C3(Oc4c(Cl)cc(F)cc4Cl)CC3)CO2)c(F)c1 (stereo not drawn) [Example V-12], the LogP [1] was 4.98^[a].
In the case of Fc1ccc(C2(C3(Oc4c(Cl)cc(SC(F)(F)F)cc4Cl)CC3)CO2)c(F)c1 (stereo not drawn) [Example V-13], the LogP [1] was 6.07^[a].
For Fc1cc(Cl)ccc1C1(C2(Oc3c(F)cc(Cl)cc3F)CC2)CO1 (stereo not drawn) [Example V-14], the LogP [1] was 5.23^[a].
In the case of Fc1cc(F)c(OC2(C3(c4ccc(Cl)cc4F)CO3)CC2)c(F)c1 (stereo not drawn) [Example V-15], the LogP [1] was 4.72^[a].
With Fc1ccc(C2(C3(Oc4ccc(F)c(F)c4F)CC3)CO2)c(F)c1 (stereo not drawn) [Example V-16] the LogP [1] was 4.28^[a].
For Fc1ccc(C2(C3(Oc4cc(F)c(F)cc4F)CC3)CO2)c(F)c1 (stereo not drawn) [Example V-17], the LogP [1] was 4.10^[a].
For Fc1ccc(C2(C3(Oc4cc(F)c(Br)c(F)c4)CC3)CO2)c(F)c1 (stereo not drawn) [Example V-18], the LogP [1] was 4.86^[a].
With Fc1ccc(C2(C3(Oc4c(F)ccc(F)c4Cl)CC3)CO2)c(F)c1 (stereo not drawn) [Example V-19] the LogP [1] was 4.35^[a].
Molecule O=C(c1ccc(F)cc1F)C1(Oc2c(F)cc(F)cc2F)CC1 [IV-1, (2,4-difluorophenyl)[1-(2,4,6-trifluorophenoxy)cyclopropyl]methanone] has a chromatographic logP [2] of 3.96.
With O=C(c1ccc(F)cc1F)C1(Oc2c(F)cc(Cl)cc2F)CC1 [IV-2] the LogP [1] was 4.44^[a].
For O=C(c1ccc(F)cc1F)C1(Oc2c(F)cc(Br)cc2F)CC1 [IV-3], the LogP [1] was 4.54^[a].
With O=C(c1ccc(F)cc1F)C1(Oc2c(Cl)cc(Cl)cc2Cl)CC1 [IV-4] the LogP [1] was 5.34^[a].
In the case of O=C(c1ccc(F)cc1F)C1(Oc2c(Cl)cc(F)cc2Cl)CC1 [IV-5], the LogP [1] was 4.76^[a].
For O=C(c1ccc(F)cc1F)C1(Oc2c(F)ccc(F)c2F)CC1 [IV-6], the LogP [1] was 3.99^[a].
For O=C(c1ccc(F)cc1F)C1(Oc2c(Cl)cc(Br)cc2Cl)CC1 [IV-7], the LogP [1] was 5.01^[a].
With O=C(c1ccc(F)cc1F)C1(Oc2c(Cl)ccc(Cl)c2Cl)CC1 [IV-8] the LogP [1] was 5.03^[a].
For O=C(c1ccc(F)cc1F)C1(Oc2c(F)ccc(Cl)c2F)CC1 [IV-9], the LogP [1] was 4.27^[a].
With O=C(c1ccc(F)cc1F)C1(Oc2cc(F)c(F)c(F)c2)CC1 [IV-10] the LogP [1] was 4.20^[a].
In the case of O=C(c1ccc(F)cc1F)C1(Oc2c(Cl)cc(C(F)(F)F)cc2Cl)CC1 [IV-11], the LogP [1] was 5.25^[a].
With O=C(c1ccc(F)cc1F)C1(Oc2c(Cl)cc(OC(F)(F)F)cc2Cl)CC1 [IV-12] the LogP [1] was 5.39^[a].
With O=C(c1ccc(F)cc1F)C1(Oc2c(Cl)cc(SC(F)(F)F)cc2Cl)CC1 [IV-13] the LogP [1] was 5.85^[a].
In the case of N#Cc1cc(Cl)c(OC2(C(=O)c3ccc(F)cc3F)CC2)c(Cl)c1 [IV-14], the LogP [1] was 4.15^[a].
For O=C(c1ccc(Cl)cc1F)C1(Oc2c(F)cc(F)cc2F)CC1 [IV-15], the LogP [1] was 4.49^[a].
With O=C(c1ccc(Cl)cc1F)C1(Oc2c(F)cc(Cl)cc2F)CC1 [IV-16] the LogP [1] was 5.03^[a].
For O=C(c1ccc(F)cc1F)C1(Oc2ccc(F)c(F)c2F)CC1 [IV-17], the LogP [1] was 4.01^[a].
In the case of O=C(c1ccc(F)cc1F)C1(Oc2cc(F)c(F)cc2F)CC1 [IV-18], the LogP [1] was 3.94^[a].
For O=C(c1ccc(F)cc1F)C1(Oc2cc(F)c(Br)c(F)c2)CC1 [IV-19], the LogP [1] was 4.54^[a].
With O=C(c1ccc(F)cc1F)C1(Oc2c(F)ccc(F)c2Cl)CC1 [IV-20] the LogP [1] was 4.25^[a].
In the case of O=C(c1ccc(Cl)cc1F)C1(Oc2c(F)cc(Br)cc2F)CC1 [IV-21], the LogP [1] was 5.05^[a].
